Laboratory results: PMC6272674, “Selected Compounds Structurally Related to Acyclic Sesquiterpenoids and Their Antibacterial and Cytotoxic Activity” (Molecules, 2015)
≈ marks a conversion by molar mass, not a printed value.

Tests used:
[1] = system: Staphylococcus aureus ATCC 43300; test: Micro-dilution broth MIC, Staphylococcus aureus; type: cell-based; details: ATCC43300, 24 h, 37 °C, read-out: Minimum Inhibitory Concentrations MIC
Method: (§1) The standard strains, Gram-positive: Staphylococcus aureus ATCC […], Enterococcus faecalis Van B ATCC 51299 and Enterococcus faecium VA sensitive ATCC 35667, and Gram-negative: Escherichia coli ATCC 25922, Klebsiella pneumoniae ATCC 700603 and Acinetobacter baumannii ATCC 19606, came from a collection of the Environmental Biology Department, Medical University of Łódź. The standard strains were cultivated in Columbia Agar Medium and incubated at 37 °C for 24 h in aerobic conditions.
(§2) The antibacterial activity of the racemates and E/Z-mixtures was investigated using the micro‑dilution broth method. The compounds were diluted in ethanol. This stock solution was mixed with 100 µL of Mueller-Hinton broth to obtain concentrations from 10 µg/mL to 80 µg/mL. The mixtures were then transferred to 96-well microtiter plates. The microbial suspension was standardised to a cell density of 1.5 × 10^8 CFU, which was equal to an optical density of 0.5 on the Mc Farland scale by a bio-Merieux densitometer; one well was filled with broth only to act as a control for strain growth.

[2] = system: Enterococcus faecalis ATCC 51299; test: Micro-dilution broth MIC, Enterococcus faecalis; type: cell-based; details: ATCC51299, 24 h, 37 °C, read-out: Minimum Inhibitory Concentrations MIC
Method: as §1, §2

[3] = system: Enterococcus faecium ATCC 35667; test: Micro-dilution broth MIC, Enterococcus faecium; type: cell-based; details: ATCC35667, 24 h, 37 °C, read-out: Minimum Inhibitory Concentrations MIC
Method: as §1, §2

[4] = system: Escherichia coli ATCC 25922; test: Micro-dilution broth MIC, Escherichia coli; type: cell-based; details: ATCC25922, 24 h, 37 °C, read-out: Minimum Inhibitory Concentrations MIC
Method: as §1, §2

[5] = system: Klebsiella pneumoniae ATCC 700603; test: Micro-dilution broth MIC, Klebsiella pneumoniae; type: cell-based; details: ATCC700603, 24 h, 37 °C, read-out: Minimum Inhibitory Concentrations MIC
Method: as §1, §2

[6] = system: Acinetobacter baumannii ATCC 19606; test: Micro-dilution broth MIC, Acinetobacter baumannii; type: cell-based; details: ATCC19606, 24 h, 37 °C, read-out: Minimum Inhibitory Concentrations MIC
Method: as §1, §2

Malignant Melanoma MEWO = test: MTT viability, MEWO; type: cell-based, human; details: Homo sapiens, 24 h, range 10–1000 µM, read-out: half maximal inhibitory concentration (IC50), interpolated
Method: (§3) Cell lines and in vitro culture conditions: The human promyelocytic leukaemia cell line HL-60 was obtained from the Centre of Molecular and Macromolecular Biology in Łódź, Poland and was cultured in RPMI 1640 medium with 20% heat-inactivated fetal bovine serum (FBS). To reduce spontaneous differentiation, the cells were never allowed to exceed a concentration of 1.0 × 10^6 cells/mL. The human keratinocyte cell line HaCaT was obtained from Cell Lines Service, Germany (CLS) and cultured in DMEM medium with 10% FBS. Human colorectal adenocarcinoma HT29 and normal epithelial IEC-6 cell lines (from ATCC) were cultured in DMEM medium with 10% FBS. The human skin melanoma cell line MEWO (from CLS) was cultured in DMEM:F12 supplemented with 2 mM L-glutamine and 10% FBS. Human fibroblasts from gingiva isolated from original tissue, HFIB-G, (from Provitro) were cultured in Quantum 333 (from Immunique). The media were supplemented with 100 U/mL penicillin and 100 µg/mL streptomycin; all media components were obtained from Life Technologies. The adherent cell lines used in the studies were seeded on microplates before they exceeded 80% of confluence. Cells were cultured at 37 °C in 5% CO2 air atmosphere/95% air atmosphere.
(§4) Cytotoxic activity: The cells (the density for HL-60 was 0.5 × 10^4 cells/100 µL, otherwise it was 1 × 10^4 cells/100 µL) were plated into each well of 96-well microtiter plates and, after their attachment to the plate surface, treated with 10 µL of the indicated concentrations of compounds for 24 h. Viability was determined by MTT assay following the treatment. MTT (3-[4.5-dimethylthiazol-2-yl]-2.5-diphenyltetrazolium bromide; Sigma, St. Louis, MO, USA) solution was added to each well and incubated for another 4 h. The resulting MTT-formazan product was dissolved by the addition of lysis buffer (20% SDS and 50% DMF). The amount of formazan was determined by measuring absorbance at 570 nm with a Synergy 2 microplate reader (BioTek, Winooski, VT, USA) operated by the Gen5 program. The experiments were conducted three times with five replications. The results are expressed as an optical density ratio of the treatment to control. All data are presented as means ± SD.

MTT viability, HT29 = type: cell-based, human; details: human, HT29 colorectal adenocarcinoma cells, 1000 µM (IC50 exceeded 1000 µM), read-out: viability ± standard deviation at 1000 µM
Method: as §3, §4

[7] = system: Promyelocytic Leukaemia HL-60; test: MTT viability, HL-60; type: cell-based, human; details: Homo sapiens, HL-60, 24 h, HL-60, MTT, range 10–1000 µM, read-out: half maximal inhibitory concentration (IC50), interpolated
Method: as §3, §4

Fibroblasts HFIG = test: MTT viability, HFIG; type: cell-based, human; details: Homo sapiens, Fibroblast, 24 h, range 10–1000 µM, read-out: half maximal inhibitory concentration (IC50), interpolated
Method: as §3, §4

Keratinocytes HaCaT = test: MTT viability, HaCaT; type: cell-based, human; details: Homo sapiens, 24 h, range 10–1000 µM, read-out: half maximal inhibitory concentration (IC50), interpolated
Method: as §3, §4

MTT viability, IEC6 = type: cell-based; details: rat, IEC-6 small intestine epithelial cells, 1000 µM (IC50 exceeded 1000 µM), read-out: viability ± standard deviation at 1000 µM
Method: as §3, §4

SMILES	MIC [1]	MIC [2]	MIC [3]	MIC [4]	MIC [5]	MIC [6]	IC50 (Malignant Melanoma MEWO)	viability at 24 h, 1000 µM (MTT viability, HT29)	IC50 [7]	IC50 (Fibroblasts HFIG)	IC50 (Keratinocytes HaCaT)	viability at 24 h, 1000 µM (MTT viability, IEC6)
CC(=CC=O)CCC=C(C)C(C)CCCC(C)C (stereo not drawn) [Compound 20, 3,7,8,12-Tetramethyltrideca-2,6-dienal]	22 µg/mL (≈ 87.9 µM)	20 µg/mL (≈ 79.9 µM)	32 µg/mL (≈ 128 µM)	48 µg/mL (≈ 192 µM)	38 µg/mL (≈ 152 µM)	38 µg/mL (≈ 152 µM)	690 µM	82%	480 µM	610 µM	850 µM	64%
CC(C)=CCCC(C)CC(C)=CC=O (stereo not drawn) [Compound 21, 3,5,9-Trimethyldeca-2,8-dienal]	32 µg/mL (≈ 165 µM)	38 µg/mL (≈ 196 µM)	42 µg/mL (≈ 216 µM)	54 µg/mL (≈ 278 µM)	48 µg/mL (≈ 247 µM)	52 µg/mL (≈ 268 µM)	640 µM	98%	600 µM	830 µM	830 µM	91%
CC(C)=CCCC(C)CCC(C)=CC=O (stereo not drawn) [Compound 22, 3,6,10-Trimethylundeca-2,9-dienal]	26 µg/mL (≈ 125 µM)	24 µg/mL (≈ 115 µM)	46 µg/mL (≈ 221 µM)	44 µg/mL (≈ 211 µM)	36 µg/mL (≈ 173 µM)	36 µg/mL (≈ 173 µM)	700 µM	93%	600 µM	740 µM	880 µM	76%
CC(C)=CCCC(C)CC(C)C(C)=CC=O (stereo not drawn) [Compound 23, 3,4,6,10-Tetramethylundeca-2,9-dienal]	28 µg/mL (≈ 126 µM)	26 µg/mL (≈ 117 µM)	36 µg/mL (≈ 162 µM)	46 µg/mL (≈ 207 µM)	34 µg/mL (≈ 153 µM)	36 µg/mL (≈ 162 µM)	730 µM	87%	630 µM	800 µM	900 µM	82%
CC(C)=CCCC(C)C(C)=CCCC(C)=CCO (stereo not drawn) [Compound 24, 3,7,8,12-Tetramethyltrideca-2,6,11-trien-1-ol]	22 µg/mL (≈ 87.9 µM)	18 µg/mL (≈ 71.9 µM)	32 µg/mL (≈ 128 µM)	52 µg/mL (≈ 208 µM)	44 µg/mL (≈ 176 µM)	40 µg/mL (≈ 160 µM)	512 µM	78%	100 µM	390 µM	686 µM	85%
CC(C)=CCCC(C)/C=C/CCC(C)=CCO (stereo not drawn) [Compound 25, (6E)-3,8,12-Trimethyltrideca-2,6,11-trien-1-ol]	28 µg/mL (≈ 118 µM)	32 µg/mL (≈ 135 µM)	34 µg/mL (≈ 144 µM)	50 µg/mL (≈ 212 µM)	48 µg/mL (≈ 203 µM)	44 µg/mL (≈ 186 µM)	500 µM	108%	167 µM	454 µM	667 µM	82%
CC(=CCO)CCC=C(C)C(C)CCCC(C)C (stereo not drawn) [Compound 26, 3,7,8,12-Tetramethyltrideca-2,6-dien-1-ol]	32 µg/mL (≈ 127 µM)	30 µg/mL (≈ 119 µM)	36 µg/mL (≈ 143 µM)	48 µg/mL (≈ 190 µM)	42 µg/mL (≈ 166 µM)	38 µg/mL (≈ 151 µM)	495 µM	96%	145 µM	531 µM	620 µM	76%
CC(C)=CCCC(C)CC(C)=CCO (stereo not drawn) [Compound 27, 3,5,9-Trimethyldeca-2,8-dien-1-ol]	28 µg/mL (≈ 143 µM)	26 µg/mL (≈ 132 µM)	18 µg/mL (≈ 91.7 µM)	36 µg/mL (≈ 183 µM)	18 µg/mL (≈ 91.7 µM)	34 µg/mL (≈ 173 µM)	456 µM	106%	143 µM	489 µM	687 µM	93%
CC(C)=CCCC(C)CCC(C)=CCO (stereo not drawn) [Compound 28, 3,6,10-Trimethylundeca-2,9-dien-1-ol]	26 µg/mL (≈ 124 µM)	18 µg/mL (≈ 85.6 µM)	16 µg/mL (≈ 76.1 µM)	28 µg/mL (≈ 133 µM)	16 µg/mL (≈ 76.1 µM)	18 µg/mL (≈ 85.6 µM)	512 µM	93%	198 µM	687 µM	698 µM	101%
CC(C)=CCCC(C)CC(C)C(C)=CCO (stereo not drawn) [Compound 29, 3,4,6,10-Tetramethylundeca-2,9-dien-1-ol]	28 µg/mL (≈ 125 µM)	22 µg/mL (≈ 98 µM)	18 µg/mL (≈ 80.2 µM)	38 µg/mL (≈ 169 µM)	36 µg/mL (≈ 160 µM)	32 µg/mL (≈ 143 µM)	587 µM	82%	252 µM	756 µM	946 µM	103%
CC(=O)OCC=C(C)CCC=C(C)C(C)CCCC(C)C (stereo not drawn) [Compound 32, 3,7,8,12-Tetramethyltrideca-2,6-dien-1-yl acetate]	28 µg/mL	22 µg/mL	20 µg/mL	28 µg/mL	18 µg/mL	22 µg/mL	800 µM	103%	278 µM	980 µM	950 µM	92%
